Measured values from ChEMBL document CHEMBL1201862, “PubChem BioAssay data set” (2004).
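1) Cells in 96-well plates. 2) Compound, 48 h, 5 concentrations. 3) Linear interpolation between surrounding doses. 4) Unreached endpoint = highest concentration. Here, GI50 denotes the concentration required for 50% inhibition of growth.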 Calls of active or inactive are those of the source. No stated cut-off is given here; in the data, active = GI50 up to about 1.1 µM and inactive = higher.

How the values were obtained:
Experiment in all cases: growth of human tumour cells (NCI), 48 h
[1] = system: UACC-257
[2] = system: NCI/ADR-RES
[3] = system: HCT-15
[4] = system: MDA-MB-435
[5] = system: NCI-H522
[6] = system: NCI-H226
[7] = system: OVCAR-3
[8] = system: SN12C
[9] = system: SF-295
[10] = system: SK-OV-3
[11] = system: SK-MEL-5
[12] = system: OVCAR-4
[13] = system: SNB-75
[14] = system: SF-539
[15] = system: RXF 393
[16] = system: OVCAR-5
[17] = system: KM12
[18] = system: HL-60
[19] = system: CCRF-CEM
[20] = system: HCC 2998

| Compound | GI50 [1] | GI50 [2] | GI50 [3] | GI50 [4] | GI50 [5] | GI50 [6] | GI50 [7] | GI50 [8] | GI50 [9] | GI50 [10] | GI50 [11] | GI50 [12] | GI50 [13] | GI50 [14] | GI50 [15] | GI50 [16] | GI50 [17] | GI50 [18] | GI50 [19] | GI50 [20] |
| --- | --- | --- | --- | --- | --- | --- | --- | --- | --- | --- | --- | --- | --- | --- | --- | --- | --- | --- | --- | --- |
| O=[N+]([O-])c1ccc2[nH]c(-c3ccc(Cl)cc3)nc2c1 | 20.5 µM (inactive) | 21.2 µM (inactive) | 14.9 µM | 23.6 µM (inactive) | 12.6 µM (inactive) | 22.3 µM (inactive) | 30.8 µM (inactive) | 29.7 µM (inactive) | 20.3 µM (inactive) | 24 µM (inactive) | 16.1 µM (inactive) | 32.7 µM (inactive) | 25 µM (inactive) | 21.1 µM (inactive) |  |  |  |  |  |  |
| CCOC(=O)NC(=S)NN(C)C1=NCC(C)(C)S1 | > 100 µM (inactive) |  | > 100 µM | > 100 µM (inactive) | > 100 µM (inactive) |  | > 100 µM (inactive) | > 100 µM (inactive) | > 100 µM (inactive) | > 100 µM (inactive) | > 100 µM (inactive) |  | > 100 µM (inactive) | > 100 µM (inactive) | > 100 µM (inactive) | > 100 µM (inactive) | > 100 µM (inactive) | > 100 µM (inactive) | > 100 µM (inactive) |  |
| Cc1ccc(C)c(N2C(=O)C(=O)C(c3nc4ccccc4s3)/C(=N/N)C2=O)c1 (configuration not stated) | > 27.9 µM (inactive) |  | > 100 µM |  | > 100 µM (inactive) | > 100 µM (inactive) | > 100 µM (inactive) | > 100 µM (inactive) |  | > 100 µM (inactive) | > 100 µM (inactive) | > 46.9 µM (inactive) | > 100 µM (inactive) | > 100 µM (inactive) | > 100 µM (inactive) | > 100 µM (inactive) | > 100 µM (inactive) | > 100 µM (inactive) | > 100 µM (inactive) | > 100 µM (inactive) |
| COC(=O)C12C3C=CC(O3)C1C1C=CC2O1 (configuration not stated) | > 100 µM (inactive) |  | > 100 µM |  | > 100 µM (inactive) | > 100 µM (inactive) | > 100 µM (inactive) | > 100 µM (inactive) | > 100 µM (inactive) | > 100 µM (inactive) | > 100 µM (inactive) |  |  | > 100 µM (inactive) | > 100 µM (inactive) | > 100 µM (inactive) | > 100 µM (inactive) | > 100 µM (inactive) | > 100 µM (inactive) | > 100 µM (inactive) |
| Cc1ccccc1C(=O)c1cc(O)ccc1O | > 100 µM (inactive) |  | 50.1 µM |  | 27.2 µM (inactive) | > 100 µM (inactive) | > 100 µM (inactive) | > 100 µM (inactive) | > 100 µM (inactive) | > 100 µM (inactive) | > 100 µM (inactive) | > 100 µM (inactive) | 76.2 µM (inactive) | > 100 µM (inactive) | > 100 µM (inactive) | > 100 µM (inactive) | 43 µM (inactive) | 31.8 µM (inactive) | > 100 µM (inactive) | 53.8 µM (inactive) |
| CN(C)C(=S)/N=c1\ss/c(=N\C(=S)N(C)C)n1-c1cccc(Cl)c1 | > 100 µM (inactive) |  | > 100 µM |  | > 100 µM (inactive) | > 100 µM (inactive) | > 100 µM (inactive) | > 100 µM (inactive) | > 100 µM (inactive) | > 10 µM (inactive) | > 100 µM (inactive) | > 100 µM (inactive) | 36.6 µM (inactive) | > 100 µM (inactive) | 79.6 µM (inactive) | > 100 µM (inactive) | > 100 µM (inactive) | > 100 µM (inactive) | > 100 µM (inactive) | > 100 µM (inactive) |
| CC1=Nc2c(O)nc(S)nc2NC(c2ccc(Cl)c(Cl)c2)C1 (configuration not stated) | 21 µM (inactive) |  | 33.7 µM |  | 74.3 µM (inactive) | 22.6 µM (inactive) | 17.5 µM (inactive) | 20.1 µM (inactive) | 20.1 µM (inactive) | 32.1 µM (inactive) | 23.6 µM (inactive) | 25.5 µM (inactive) | 80.9 µM (inactive) | 21.1 µM (inactive) | 17.5 µM (inactive) | > 100 µM (inactive) | 17.7 µM (inactive) | > 100 µM (inactive) | > 100 µM (inactive) | 17.8 µM (inactive) |
| Cc1ccc(S(=O)(=O)O/N=C2\CCC\C2=C/c2ccccc2)cc1 | 17.1 µM (inactive) |  | 22.9 µM |  | 18.9 µM (inactive) | 18.5 µM (inactive) | 18.5 µM (inactive) | 45 µM (inactive) | 22.8 µM (inactive) | 63.4 µM (inactive) | 14.8 µM (inactive) | 23.3 µM (inactive) | 20.2 µM (inactive) | 19.9 µM (inactive) | 20.3 µM (inactive) | 23 µM (inactive) | 17.6 µM (inactive) | 6.82 µM (inactive) | 58.6 µM (inactive) | 17.7 µM (inactive) |
| Cn1cc2ccccc2c1-c1nc(F)nc(F)n1 |  |  | > 100 µM |  | > 100 µM (inactive) | > 100 µM (inactive) | > 100 µM (inactive) | > 100 µM (inactive) | > 100 µM (inactive) | > 100 µM (inactive) | > 100 µM (inactive) | > 100 µM (inactive) | 92.3 µM (inactive) | > 100 µM (inactive) | > 100 µM (inactive) | > 100 µM (inactive) | 63.5 µM (inactive) | 45.5 µM (inactive) | 97.9 µM (inactive) | > 100 µM (inactive) |
| O=C(C#Cc1ccccc1)N1c2ccccc2CC1c1c[nH]c2ccccc12 (configuration not stated) | 19.1 µM (inactive) |  | 11.5 µM |  | 11 µM (inactive) | 9.79 µM (inactive) | 14.6 µM (inactive) | 13 µM (inactive) | 15.5 µM (inactive) | 20.4 µM (inactive) | 14.4 µM (inactive) | 26.3 µM (inactive) | 11.7 µM (inactive) | 13 µM (inactive) | 4.48 µM (inactive) | 24.8 µM (inactive) | 15.6 µM (inactive) | 14.7 µM (inactive) | 4.63 µM (inactive) | 17.2 µM (inactive) |
| COc1ccc2c3c([nH]c(=O)c2c1C(=O)O)-c1ccccc1CC3 |  |  | > 100 µM |  | > 100 µM (inactive) | 65.8 µM (inactive) | > 100 µM (inactive) | > 100 µM (inactive) | > 100 µM (inactive) | > 100 µM (inactive) | > 100 µM (inactive) | > 100 µM (inactive) | > 100 µM (inactive) | > 100 µM (inactive) | > 100 µM (inactive) | > 100 µM (inactive) | > 100 µM (inactive) | > 100 µM (inactive) | > 100 µM (inactive) | > 100 µM (inactive) |
| O=Cc1[nH]c2ccccc2c1Br | 28.5 µM (inactive) |  |  |  | 56.8 µM (inactive) | 29.8 µM (inactive) | 21.8 µM (inactive) | 22.6 µM (inactive) | 38.4 µM (inactive) | 20.8 µM (inactive) | 16.5 µM (inactive) | 31.3 µM (inactive) | 19.2 µM (inactive) | 15.3 µM (inactive) | 25.4 µM (inactive) | 98.4 µM (inactive) | 26.3 µM (inactive) | 13.8 µM (inactive) | 37.4 µM (inactive) | 60.5 µM (inactive) |
| OCC(O)C(O)c1nn(-c2ccccc2)c2nc3cc(Cl)c(Cl)cc3nc12 (configuration not stated) | 36.7 µM (inactive) |  | 23.6 µM |  | 26.1 µM (inactive) | 21.4 µM (inactive) | 27.4 µM (inactive) | 63.5 µM (inactive) | 31.4 µM (inactive) | 30.6 µM (inactive) | 26.4 µM (inactive) | 24.7 µM (inactive) | 21.8 µM (inactive) | 24 µM (inactive) | 21.2 µM (inactive) | 14.8 µM (inactive) | 20.8 µM (inactive) | 18.2 µM (inactive) | 35.2 µM (inactive) | 31.9 µM (inactive) |
| O=c1[nH]cnc2c(C3OC(CO)C(O)C3O)c[nH]c12 (configuration not stated) | > 100 µM (inactive) |  |  | > 100 µM (inactive) | > 100 µM (inactive) | > 100 µM (inactive) | > 100 µM (inactive) | > 100 µM (inactive) | > 100 µM (inactive) | > 100 µM (inactive) | > 100 µM (inactive) | > 100 µM (inactive) | > 100 µM (inactive) | > 100 µM (inactive) | > 100 µM (inactive) | > 100 µM (inactive) | > 100 µM (inactive) | > 100 µM (inactive) | > 100 µM (inactive) | > 100 µM (inactive) |
| COC1CC(O[C@H]2CC[C@@]3(C)C(=CCC4(O)C3CCC35C(=O)OC6(C)O[C@@]43CCC65)C2)OC(C)C1O (some centres not stated) | > 100 µM (inactive) |  | > 100 µM |  | > 100 µM (inactive) | > 100 µM (inactive) |  | > 100 µM (inactive) | > 100 µM (inactive) | > 100 µM (inactive) | > 100 µM (inactive) | > 100 µM (inactive) | > 100 µM (inactive) | > 100 µM (inactive) | > 100 µM (inactive) | > 100 µM (inactive) | > 100 µM (inactive) | > 100 µM (inactive) | > 100 µM (inactive) | > 100 µM (inactive) |
| CCc1cccc2c3c([nH]c12)-c1ccccc1NC(=O)C3 | > 100 µM (inactive) | > 100 µM (inactive) | 84.1 µM | 35.3 µM (inactive) |  | 14.1 µM (inactive) | > 100 µM (inactive) | 95.5 µM (inactive) | > 100 µM (inactive) | > 100 µM (inactive) | > 100 µM (inactive) |  | 13.2 µM (inactive) |  |  | > 100 µM (inactive) | 7.06 µM (inactive) | 92.3 µM (inactive) | > 100 µM (inactive) |  |
| Cc1ccc2c(O)cc(-c3ccc4ccccc4c3)nc2n1 | 5.58 µM (inactive) | 4.58 µM (inactive) | 3.54 µM |  | 3.32 µM (inactive) | 5.81 µM (inactive) |  | 5.3 µM (inactive) |  | 3.37 µM (inactive) |  | 6.25 µM (inactive) | 2.75 µM (inactive) | 4.74 µM (inactive) |  | 19.3 µM (inactive) | 3.21 µM (inactive) | 1.82 µM (inactive) | 3.66 µM (inactive) | 10.8 µM (inactive) |
